Results: patent publication US20230416703A1, “Methods and Materials for Producing Polyols and Electron Rich Compounds” (THE TRUSTEES OF PRINCETON UNIVERSITY, priority 2019, published 2023)
Entries after “also recorded” stand apart in the source; their conditions may differ. Blank lines part the entries; values can stand above or below the compound they belong to.

How the values were obtained:
[1] = target: T1, Pyp1 (Saccharomyces cerevisiae, UniProt P53981); assay: Phosphatase activity of purified recombinant Pyp1 against phosphorylated substrates; format: biochemical, S. cerevisiae; conditions: incubation with purified Pyp1, 0.5 mM substrate
T1 construct: made in house; host or cells: E. coli BL21 (DE3) Gold
Protocol: Purified Pyp1 phosphatase activity was assayed in the presence of 0.5 mM substrate and 5 mM Mg^2+ (pH=7.0, 30° C.) by monitoring the appearance of free phosphate or the polyol. The y axis represents specific phosphatase activity (μmol product made per mg of protein per minute) (mean±range of N=2 replicates).
Purified Pyp1's phosphatase activity was assayed against 0.5 mM ribitol-5P by LC-MS. […] (FIG. 10B). Pyp1's D-polyol phosphatase activity was measured in the presence of 0.5 mM substrate and 5 mM Mg^2+ (pH=7.0, 30° C.) by monitoring the appearance of phosphate or the polyol. The y-axis represents specific phosphatase activity (moles product per min per mg of protein) (mean±range, N=2).
In the initial screening of Pyp1's phosphatase activity, the gene encoding Pyp1 was amplified by PCR using S. cerevisiae genomic DNA. The amplified fragments were cloned into a modified pET15b vector (Novagen, Darmstadt, Germany) and overexpressed in the E. coli BL21(DE3) Gold strain (Stratagene, La Jolla, California) as previously described by Kuznetsova et al., J Biol Chem 2010, 285, 21049. The recombinant proteins were purified using metal ion affinity chromatography on nickel affinity resin (Qiagen, Hilden, Germany) to high homogeneity and stored at −80° C. Purified Pyp1 was screened for the presence of phosphatase activity against the general phosphatase substrate p-nitrophenyl phosphate (pNPP) and 90 phosphorylated metabolites as described previously by Kuznetsova et al., J Biol Chem 2006, 281, 36149. […]
Briefly, the gene encoding Pyp1 was amplified by PCR using S. cerevisiae genomic DNA. The amplified fragments were cloned into a modified pET15b vector (Novagen, Darmstadt, Germany) and overexpressed in the E. coli BL21 (DE3) Gold strain (Stratagene, La Jolla, California) as previously described (Kuznetsova et al., 2010). The recombinant protein was purified using metal ion affinity chromatography on nickel chelate resin (Qiagen, Hilden, Germany) to high homogeneity and stored at −80° C. Purified Pyp1 was then screened for phosphatase activity as described previously (Kuznetsova et al., 2006).

[2] = target: T2, yeast Pgi1 (phosphoglucose isomerase) (Saccharomyces cerevisiae, UniProt P12709); assay: Inhibition of purified Pgi1 (phosphoglucose isomerase) activity, LC/MS detection of glucose-6-phosphate; format: biochemical; conditions: for Inhibition of Pgi1 (in words): 0.6 mM fructose-6-phosphate, 0.05-5 mM polyol phosphate
T2 construct: purchased Sigma Aldrich (St. Louis, MO)
Protocol: Purified Pgi1's activity was assayed in the presence of 0.6 mM fructose-6-phosphate, 5 mM Mg^2+ (pH=7.0, 30° C.) and a range of 0.05-5 mM of sorbitol-6P or ribitol-5P by monitoring the appearance of glucose-6-phosphate. The y axis represents relative Pgi1 activity (mean±range of N=2 replicates).
FIGS. 13A-13C show polyol phosphates inhibit phosphoglucose isomerase in vitro and in growing yeast. (FIG. 13A). Activity of the purified Pgi1 was assayed in the presence of 0.6 mM fructose-6-phosphate (substrate), 5 mM Mg2+ (pH=7.0, 30° C.) and a range of 0.05-5 mM of sorbitol-6P or ribitol-5P by monitoring the appearance of glucose-6-phosphate. The x-axis represents polyol phosphate concentration and the y-axis represents relative Pgi1 activity (mean±range of N=2 replicates). (FIG. 13B). […] This experiment is used to define a characteristic low-Pgi metabolome. (FIG. 13C). Metabolome profiling of pyp1Δ (dark red) and wild type (blue) cells at t=1 h after switching from trehalose+ribitol to glucose+ribitol.
For the determination of IC50 of sorbitol-6-phosphate and ribitol-5-phosphate on phosphoglucose isomerase, yeast Pgi1 was purchased from Sigma Aldrich (St. Louis, MO). Phosphoglucose isomerase activity was determined by adding fructose-6-phosphate and monitoring the appearance of glucose-6-phosphate using LC/MS. It was determined that the LC/MS-based assay is consistently more sensitive and accurate than the colometric-based assay, which involves coupling the Pgi1 activity with glucose-6-phosphate dehydrogenase activity and monitoring the appearance of NADH. The reaction mixture contained 100 mM Tris-HCl at a pH of 8.0, 10 mM MgCl2, 0.6 mM fructose-6-phosphate (concentration in cells grown exponentially on glucose), and a range of sorbitol-6-phosphate and ribitol-5-phosphate concentrations (0.05 to 5 mM). The resulting data were again fitted to the Hill equation using the GraphPad Prism Software.
To measure the inhibition of Pgi by sorbitol-6-phosphate and ribitol-5-phosphate, yeast Pgi1 was purchased from Sigma Aldrich (St. Louis, MO). Phosphoglucose isomerase activity was determined by adding fructose-6-phosphate and monitoring the appearance of glucose-6-phosphate using LC/MS. We found such LC/MS based assay is consistently more sensitive and accurate than the more typical colorimetric-based assay, which involves coupling the Pgi1 activity with glucose-6-phosphate dehydrogenase activity and monitoring the appearance of NADH. The reaction mixture contained 100 mM Tris-HCl at pH 8.0, 10 mM MgCl2, 0.6 mM fructose-6-phosphate (the physiological concentration in cells grown exponentially on glucose), and a range of sorbitol-6-phosphate and ribitol-5-phosphate concentrations (0.05 to 5 mM). The resulting data were fitted to the Hill equation using the GraphPad Prism Software.

[3] = test system: pyp1Δ cells; assay: Growth rate of pyp1Δ yeast in the presence of ribitol; format: cell-based, Saccharomyces cerevisiae
Text: (§1) Wild type yeast and pyp1Δ cells growing on 1% trehalose in the absence or presence of 1% ribitol (upper panel) were switched to media with trehalose substituted by 1% glucose (lower panel). The y axis represents ratio of growth rates (mean±range of N=2 replicates) of cells growing in the presence of ribitol vs. cells growing in the absence of ribitol. […] The x axis represents hours after the switch and the y axis represents absolute intracellular concentration (mean±range of N=2 replicates). […] The x axis represents different growth rates and the y axis represents relative expression level of PYP1. […] The y axis represents absolute intracellular concentration, except for the panel displaying the NADPH/NADP^+ ratio (mean±range of N=2 replicates).
(§2) (FIG. 12A). Growth of wild type and pyp1Δ yeast on sorbitol. Yeast cells grown on YPD medium were switched to minimal media containing 2% sorbitol as the carbon source. The x-axis represents days after the switch and the y-axis represents optical density (A600). (FIG. 12B). Absolute concentration of sorbitol-6-phosphate in wild type and pyp1Δ cells in the experiment shown in (A). The x-axis represents days after the switch and the y-axis represents absolute intracellular concentration (mean±range, N=2). (FIG. 12C). Growth of wild type and pyp1Δ cells on glycerol and mannitol. […]

[4] = test system: wild type yeast cells; assay: Growth rate of wild type yeast in the presence of ribitol; format: cell-based, Saccharomyces cerevisiae; conditions: 1% trehalose +/- 1% ribitol
Text: as §1, §2

T2 sequence (P12709 2-554 limits assumed): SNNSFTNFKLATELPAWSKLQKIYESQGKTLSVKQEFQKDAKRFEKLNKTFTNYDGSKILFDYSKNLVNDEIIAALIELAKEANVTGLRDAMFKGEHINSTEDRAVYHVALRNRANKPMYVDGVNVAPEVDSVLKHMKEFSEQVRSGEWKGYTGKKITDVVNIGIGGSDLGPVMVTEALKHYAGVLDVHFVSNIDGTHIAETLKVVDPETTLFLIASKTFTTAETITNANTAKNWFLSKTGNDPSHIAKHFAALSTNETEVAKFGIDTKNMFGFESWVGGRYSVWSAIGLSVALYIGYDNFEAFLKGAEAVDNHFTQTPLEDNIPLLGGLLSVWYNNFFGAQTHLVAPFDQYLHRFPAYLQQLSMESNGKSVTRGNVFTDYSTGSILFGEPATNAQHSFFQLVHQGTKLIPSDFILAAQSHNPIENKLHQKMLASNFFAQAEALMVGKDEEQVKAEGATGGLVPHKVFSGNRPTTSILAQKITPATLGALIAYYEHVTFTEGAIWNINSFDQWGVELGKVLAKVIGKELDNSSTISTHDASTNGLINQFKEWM
T1 sequence (P53981 whole entry): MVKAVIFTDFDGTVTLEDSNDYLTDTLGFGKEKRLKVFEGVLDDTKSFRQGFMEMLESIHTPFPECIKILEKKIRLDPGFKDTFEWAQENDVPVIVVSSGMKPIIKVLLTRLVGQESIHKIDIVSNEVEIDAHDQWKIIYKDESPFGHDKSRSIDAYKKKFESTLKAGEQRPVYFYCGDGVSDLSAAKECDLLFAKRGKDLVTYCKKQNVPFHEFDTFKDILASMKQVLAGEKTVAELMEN

Structure (SMILES): O=P(O)(O)OCC(O)CO (racemic) [racemic glycerol-3P]
Pyp1 phosphatase activity on substrate (in words) [1]: hydrolysis

Structure (SMILES): O=C(CO)[C@@H](O)[C@H](O)[C@H](O)[C@H](O)[C@H](O)COP(=O)(O)O [O8P, D-Glycero-D-Altro-Octulose-8-phosphate]
Pyp1 phosphatase activity on substrate (in words) [1]: No detectable phosphatase activity
Pyp1 phosphatase activity on substrate (in words) ([1]; listed as octulose-8P): no detectable phosphatase activity

Structure (SMILES): O=P(O)(O)OCC(O)CO [glycerol-1P, D-glycerol-3-phosphate]
Pyp1 phosphatase activity on substrate (in words) [1]: depletion
Pyp1 phosphatase activity on substrate (in words) ([1]; listed as Glycerol-1-phosphate): in vitro substrate

Structure (SMILES): O=P(O)(O)OC[C@@H](O)[C@@H](O)[C@@H](O)CO [ribitol-5P, ribitol-5-phosphate]
Inhibition of Pgi1 (in words) [2]: did not inhibit Pgi1 as strongly as sorbitol-6P; also recorded: less potently
Pyp1 phosphatase activity on substrate (in words) [1]: depletion
Lower growth rate in pyp1Δ cells after carbon upshift ([3]; switched from trehalose + ribitol to glucose plus ribitol): ~50%

Structure (SMILES): OC[C@@H](O)[C@@H](O)[C@@H](O)CO [ribitol]
Effect on growth rate of wild type cells growing on trehalose [4]: does not affect the growth rate; also recorded: without impacting growth rate
Decrease of the growth rate of pyp1Δ cells ([3]; 1% trehalose +/- 1% ribitol): ~20%

Structure (SMILES): O=P(O)(O)OC[C@@H](O)[C@@H](O)[C@H](O)[C@@H](O)CO [sorbitol-6P, sorbitol-6-phosphate]
Inhibition of Pgi1 (in words) [2]: inhibit
inhibition at 1000 µM ([2]; 1 mM sorbitol-6P added, read-out: Pgi1 activity inhibited): > 85%
IC50 ([2]; purified Pgi1, 0.6 mM fructose-6-phosphate, inhibitor range 0.05-5 mM): ~50 µM
Pyp1 phosphatase activity on substrate (in words) [1]: depletion; also recorded: hydrolysis

Results, then the compound that gave them:

Pyp1 phosphatase activity on substrate (in words) [1]: hydrolysis
Structure (SMILES): O=C[C@H](O)[C@H](O)COP(=O)(O)O [erythrose-4P]

Pyp1 phosphatase activity on substrate (in words) ([1]; listed as (L)-glycerol-3P): very low activity
Structure (SMILES): O=P(O)(O)OC[C@H](O)CO [glycerol-3P, L-glycerol-3-phosphate]
